What was measured:
plasmin = target: T1, plasmin (Homo sapiens, UniProt P00747); experiment: Plasmin activity assay (Plasmin Inhibitor Screening Assay Kit); type: biochemical; conditions: for inhibition at 500 µM: 0.5 mM; for inhibition at 5000 µM: 5 mM; for inhibition at 10000 µM: 10 mM; for inhibition at 15000 µM: 15 mM; for inhibition at 20000 µM: 20 mM; for inhibition at 30000 µM: 30 mM; for increase of IC50 of plasmin's catalytic domain compared to IC50 in plasma clot lysis assay: plasma clot lysis IC50 from Bosch-Sanz et al. [43]
T1 construct: purchased abcam
T1 sequence (P00747 97-580 limits assumed): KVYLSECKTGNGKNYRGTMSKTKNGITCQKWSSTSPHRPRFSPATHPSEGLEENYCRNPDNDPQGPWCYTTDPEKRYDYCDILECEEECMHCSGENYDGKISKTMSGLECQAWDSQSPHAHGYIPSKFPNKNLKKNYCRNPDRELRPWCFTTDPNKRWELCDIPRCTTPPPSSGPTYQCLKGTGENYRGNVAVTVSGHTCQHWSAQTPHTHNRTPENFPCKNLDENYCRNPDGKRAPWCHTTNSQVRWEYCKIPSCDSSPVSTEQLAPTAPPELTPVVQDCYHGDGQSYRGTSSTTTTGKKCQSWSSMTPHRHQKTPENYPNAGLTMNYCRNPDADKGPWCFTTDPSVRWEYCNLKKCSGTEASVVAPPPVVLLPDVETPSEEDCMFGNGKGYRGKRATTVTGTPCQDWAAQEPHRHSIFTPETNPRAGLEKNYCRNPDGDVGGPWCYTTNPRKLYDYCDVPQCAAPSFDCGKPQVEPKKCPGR
T1 sequence (P00747 581-810 limits assumed): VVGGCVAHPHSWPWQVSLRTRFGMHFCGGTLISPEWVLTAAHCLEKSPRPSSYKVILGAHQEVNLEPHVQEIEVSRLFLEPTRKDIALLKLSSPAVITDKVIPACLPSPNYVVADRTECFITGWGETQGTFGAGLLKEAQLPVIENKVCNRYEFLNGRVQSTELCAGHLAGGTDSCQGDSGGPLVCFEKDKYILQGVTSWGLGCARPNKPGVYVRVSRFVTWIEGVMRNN
Experimental: The potential activity of the studied compounds on the catalytic domain of plasmin was evaluated using the Plasmin Inhibitor Screening Assay Kit (abcam), following the manufacturer’s instructions. Briefly, the assay measures the inhibition of plasmin’s activity by the tested compounds through the cleavage of a fluorogenic peptide substrate. The assay was performed in flat-bottom 96-well plates. Plasmin was pre-incubated with different concentrations of the tested compounds for 10 min at RT prior to the addition of the peptide substrate. Plasmin’s activity was then measured by monitoring the increase in fluorescence intensity over time using a microplate reader (Infinite M Plex, Tecan, Männedorf, Switzerland) at an Ex/Em of 360/450 nm, every minute at 37 °C for 10 min. The slope of each sample was determined using the initial and final fluorescence values and their respective time points. (1) Fluorescence slope=RFU2−RFU1/t2−t1
The Relative Plasmin Inhibition was calculated according to the manufacturer’s instructions using a control slope with no compound (enzyme control):(2) Relative Plasmin Inhibition%=SlopeControl−SlopeCompound/SlopeControl×100

[1] = target: T2, tissue-type plasminogen activator (tPA) (Homo sapiens, UniProt P00750); experiment: tPA activity assay (chromogenic substrate); type: biochemical; conditions: for activity on tPA's active site: at the tested concentrations
T2 construct: purchased abcam
T2 sequence (P00750 36-562): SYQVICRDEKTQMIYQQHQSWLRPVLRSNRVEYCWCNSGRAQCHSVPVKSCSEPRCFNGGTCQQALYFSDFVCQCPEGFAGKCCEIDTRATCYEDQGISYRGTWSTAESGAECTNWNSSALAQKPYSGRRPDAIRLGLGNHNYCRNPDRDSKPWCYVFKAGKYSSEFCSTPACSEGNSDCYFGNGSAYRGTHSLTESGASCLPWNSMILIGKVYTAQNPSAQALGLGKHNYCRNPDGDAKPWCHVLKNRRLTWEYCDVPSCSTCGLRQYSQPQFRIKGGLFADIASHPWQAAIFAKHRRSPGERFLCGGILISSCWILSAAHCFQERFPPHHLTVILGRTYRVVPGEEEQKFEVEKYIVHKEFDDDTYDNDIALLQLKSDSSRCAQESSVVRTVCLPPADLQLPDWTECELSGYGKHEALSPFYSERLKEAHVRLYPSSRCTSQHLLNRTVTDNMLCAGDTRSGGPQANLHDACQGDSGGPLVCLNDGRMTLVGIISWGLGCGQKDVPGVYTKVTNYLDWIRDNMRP
Experimental: Tris hydrochloride, 1M, pH = 7.5 solution (Thermo Fisher Scientific, Waltham, MA, USA) was used as buffer. […] Recombinant human Tissue Plasminogen Activator (abcam, Cambridge, UK) served as the source of tPA, and was stored at −20 °C until used.
The assay measures the inhibition of tPA’s catalytic domain by the tested compounds employing a chromogenic substrate. Different concentrations of the studied molecules were incubated with tPA in a 96-well plate at 37 °C for 10 min. […] After, 20 μL of tPA’s substrate was added to each well. […] The slope for each assay was obtained from the initial and final absorbance values and their respective time points, or until complete substrate cleavage was achieved. (3) Absorbance slope=Abs2−Abs1/t2−t1
The Relative tPA Inhibition for each condition was calculated using Equation (2). Then, the Relative tPA Activity (%) was calculated by subtracting the relative tPA inhibition of each concentration from the total activity of the enzyme, obtained from a control without a compound.

plasminogen = target: T3, plasminogen (Homo sapiens, UniProt P00747); experiment: Plasminogen activation assay (conversion of plasminogen into plasmin by tPA in the absence of fibrin); type: biochemical; conditions: for concentration at which compound increased tPA's activity by 50%: plasminogen-tPA isolated system, absence of fibrin
T3 construct: purchased abcam
T3 sequence (P00747 20-810 limits assumed): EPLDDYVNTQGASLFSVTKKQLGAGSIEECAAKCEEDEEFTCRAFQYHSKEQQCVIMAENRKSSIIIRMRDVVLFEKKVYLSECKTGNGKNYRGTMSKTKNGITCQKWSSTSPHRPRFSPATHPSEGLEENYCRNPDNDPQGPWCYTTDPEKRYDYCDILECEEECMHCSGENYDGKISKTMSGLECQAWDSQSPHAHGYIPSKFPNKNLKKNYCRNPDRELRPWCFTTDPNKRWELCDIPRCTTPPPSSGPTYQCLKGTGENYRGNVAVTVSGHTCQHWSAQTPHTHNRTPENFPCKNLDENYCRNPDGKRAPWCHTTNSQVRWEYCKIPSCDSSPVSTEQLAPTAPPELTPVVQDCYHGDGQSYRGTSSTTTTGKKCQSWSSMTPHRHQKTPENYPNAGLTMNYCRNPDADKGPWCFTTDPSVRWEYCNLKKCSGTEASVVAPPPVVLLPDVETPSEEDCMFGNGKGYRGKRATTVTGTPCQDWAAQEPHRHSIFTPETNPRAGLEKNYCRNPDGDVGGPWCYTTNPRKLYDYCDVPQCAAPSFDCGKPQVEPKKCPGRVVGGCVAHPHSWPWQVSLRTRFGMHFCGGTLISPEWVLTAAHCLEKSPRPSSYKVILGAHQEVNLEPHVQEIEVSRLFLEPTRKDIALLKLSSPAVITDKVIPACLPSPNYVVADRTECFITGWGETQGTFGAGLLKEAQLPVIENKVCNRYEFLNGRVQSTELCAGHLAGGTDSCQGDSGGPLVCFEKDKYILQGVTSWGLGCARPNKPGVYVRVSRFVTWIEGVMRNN
Experimental: The conversion rate of plasminogen to plasmin was assessed using the Tissue-Type Plasminogen Activator Activity Assay Kit (abcam), following the manufacturer’s instructions. The assay measures the ability of tPA to activate plasminogen to plasmin in the presence of the tested compounds using a chromogenic substrate.
A solution of plasminogen and plasmin substrate was mixed with a previously prepared solution of the studied compound and tPA in Tris HCl buffer in a 96-well plate. The final concentration of tPA in each well was 6.8 µg/mL, in a final volume of 100 µL. Absorbance was measured on a microplate reader at a wavelength of 405 nm every minute at 37 °C for 2 h or until the system reached saturation. The absorbance slope of each sample was determined using Equation (3). The Relative Plasminogen Activation (%) for each condition was calculated with Equation (4), using a control without a compound (enzyme control). (4) Relative Plasminogen Activation (%)=SlopeCompound−SlopeControl/SlopeControl×100
Values were fitted to a linear model using MATLAB R2023a (The Math Works Inc., Natick, MA, USA). Concentrations at which each compound was able to increase plasminogen’s conversion by 50% in comparison to the enzyme control were extracted and compared for the three molecules.

[2] = tested on: whole blood clot formation; experiment: Whole blood coagulation assay (clot formation, no exogenous tPA); set-up: species or system human; conditions: 40 µM, 37 °C, fibrinolysis not triggered
Experimental: (§1) Blood was obtained by venipuncture from healthy donors after they signed an informed consent form. Blood was transferred into vacuum non-anticoagulant Vacutainer® tubes (BD, Franklin Lakes, NJ, USA). Blood samples were immediately used for the assay after extraction.
Prior to blood addition, 20 µL of the evaluated compounds was added to glass tubes, in a final concentration of 40 µM. As a control clot, 20 µL of Tris HCl buffer with no compound was used. Next, 800 µL of blood was transferred to each tube followed by casual shaking to ensure proper mixing. Tubes were incubated at 37 °C for 30 min to allow clot formation and posterior lysis. Blood clotting and lysis were visually monitored and photographs were taken after 30 min.

whole blood clots [3] = experiment: Whole blood dosage (effective antifibrinolytic dosage, tPA-triggered clot lysis); set-up: species or system human; conditions: 10 µg/mL tPA, 37 °C
Experimental: as §1
Glass tubes were prepared with 20 µL of a mixture of tPA, in a final concentration of 10 µg/mL, and the evaluated compounds, in a final concentration of 10, 20, 40, or 60 µM in Tris HCl buffer. A control clot was obtained with 20 µL of tPA with no compound. Then, 800 µL of blood was transferred to each tube and tubes were monitored for clot formation and lysis. The assay was performed with casual shaking. […] The ex vivo effective dosage for each compound was determined by their ability to inhibit complete clot degradation. Photographs were taken after 24 h of incubation.

[4] = mostly cardiac surgery patients; ref [21],[29],[36],[37],[38]; cited from earlier work
[5] = ref [28],[29],[35]; cited from earlier work
whole blood clots [6] = experiment: Whole blood clot lysis assay (D-dimer ELISA); set-up: species or system human; conditions: 20 µM, 10 µg/mL tPA
Experimental: as §1
The quantification of D-dimer released during clot lysis was performed using the human D-dimer ELISA kit (Thermo Fisher Scientific). Directly after extraction, 500 µL of blood was transferred to four different glass tubes and allowed to clot for 10 min at 37 °C. Tubes were incubated at 37 °C for an additional 1 h to enable clot retraction from the walls of the glass tubes [53]. Then, 100 µL of a mixture of tPA and the studied compounds was added on top of each clot. […] As a control clot, 100 µL of tPA without compound in Tris HCl buffer was added. Tubes were incubated at 37 °C and, at time points of 5 min, 2, 4, 7, and 24 h, samples of each tube were extracted for D-dimer quantification. After gentle shaking of the tubes, 5 µL of the supernatant from each tube was pipetted into Eppendorf tubes and stored at −20 °C until assayed. The ELISA assay was performed as described by the manufacturer’s instructions and absorbance was read in a microplate reader at the wavelengths of 450 nm and 550 nm. […]

[7] = read-out: percentage of plasmin's inhibition

Row | inhibition at 500 µM (plasmin; [7]) | inhibition at 5000 µM (plasmin; [7]) | inhibition at 10000 µM (plasmin; [7]) | inhibition at 15000 µM (plasmin; [7]) | inhibition at 20000 µM (plasmin; [7]) | inhibition at 30000 µM (plasmin; [7]) | increase of IC50 of plasmin's catalytic domain compared to IC50 in plasma clot lysis assay (plasmin) | percentage of tPA's activity ([1]; 0.5 mM) | percentage of tPA's activity ([1]; 1 mM) | percentage of tPA's activity ([1]; 5 mM) | percentage of tPA's activity ([1]; 10 mM) | percentage of tPA's activity ([1]; 15 mM) | activity on tPA's active site [1] | concentration at which compound increased tPA's activity by 50% (plasminogen) | SMILES | effect on clot formation [2] | effective dosage (concentration preventing complete clot degradation after 24 h) (whole blood clots [3]) | further results
1 | 2.61% | 12.3% | 22.4% | 28% | 29.1% | 53.1% | 1000 fold | 92.08% | 89.90% | 87.18% | 87.33% | 84.84% | no activity | 283.01 µM | NC[C@H]1CC[C@H](C(=O)O)CC1 [TXA, tranexamic acid, reference compound] | do not have any effect | 60 µM | inhibition at 50000 µM (plasmin; 50 mM, read-out: percentage of plasmin's inhibition): 59.2%; increased incidence of postoperative seizures [4]: 7 fold; cerebrospinal fluid concentration as share of plasma concentration [5]: approximately 10%
2 | 0.56% | 4.3% | 7.36% | 11.6% | 48% | 76.6% | 1000 fold | 96.53% | 94.21% | 96.95% | 91.20% | 101.89% | no activity | 4.67 µM | O=c1[nH]c(-c2cn(C3CCNCC3)nn2)no1 [compound 1] | do not have any effect | 10 µM | IC50 (plasmin; inhibition of plasmin's cleavage of a synthetic substrate by 50%): 20.6 ± 0.78 mM; potency relative to TXA in catalyzing plasminogen's activation by tPA (plasminogen; from concentration enhancing tPA's activity by 50%): more than 50 times; improvement in antifibrinolytic activity over TXA (D-dimer quantification) (whole blood clots [6]; whole blood): more than 2 fold; D-dimer release lower than for compound 5 (whole blood clots [6]; timepoint 24 h): around 35%

— article PMC11241262, “Unravelling the Antifibrinolytic Mechanism of Action of the 1,2,3-Triazole Derivatives” (International Journal of Molecular Sciences, 2024)
